Data: US20250368624A1, “M24B AMINOPEPTIDASE INHIBITORS FOR CARD8 INFLAMMASOME ACTIVATION” (Memorial Sloan-Kettering Cancer Center, priority 2022, published 2025)

Legend:
recombinant human PEPD = recombinant human PEPD (Homo sapiens (Human), UniProt P12955); test: PEPD substrate assay (Ala-Pro cleavage, L-alanine assay kit); type: biochemical; details: 50 nM recombinant human PEPD, Ala-Pro 40 μM, 25° C.
Protocol: Protein purification. Human prolidase (PEPD) was generated and purified. XPNPEP1 in pET15-b containing a 6× His tag was expressed in E. coli Rosetta DE3 cells.
Substrate assays. For the PEPD assay, a solution of substrate (Ala-Pro) was prepared in DMSO. 24 μL of 50 nM recombinant human PEPD were added to a 384-well, black, clear-bottom plate (Corning) with 1 μL dipeptide Ala-Pro (final conc. 40 μM). […] For the AMC reporter assays, experiments were performed with cell lysates. 5 μL solution of substrate (2.5 mM Ala-AMC) was added the mixture of 10 μL HEK293T cell lysates (2.5 mg/ml) and 10 μL of indicated compounds in a 384-well, black, clear-bottom plate (Corning) to initiate the reaction. Substrate cleavage was measured as increasing fluorescence signal (Ex/Em: 380/460 nm) recorded at 25° C. for 20 mins. […] H-Lys(abz)-Pro-Pro-pNA substrate was added to a final concentration of 100 μM, and fluorescence was monitored (Ex/Em: 320/410) for 60 mins.

XPNPEP1 = XPNPEP1 (Homo sapiens (Human), UniProt Q9NQW7); test: XPNPEP1 substrate assay (H-Lys(abz)-Pro-Pro-pNA); type: biochemical; details: XPNPEP1 3.5 nM, substrate 100 μM, 60 mins
Protocol: Protein purification. Human prolidase (PEPD) was generated and purified. XPNPEP1 in pET15-b containing a 6× His tag was expressed in E. coli Rosetta DE3 cells. Cells were induced with IPTG for 16 h at 37° C., pelleted and lysed in buffer A (20 mM Tris-HCl (pH 7.9), 500 mM NaCl, and 10% (v/v) glycerol) by sonication. Affinity purification chromatography was performed using TALON resin and according to previously published protocols (Li et al., 2008).
Substrate assays. For the PEPD assay, a solution of substrate (Ala-Pro) was prepared in DMSO. 24 μL of 50 nM recombinant human PEPD were added to a 384-well, black, clear-bottom plate (Corning) with 1 μL dipeptide Ala-Pro (final conc. 40 μM). Alanine liberated was measured as increasing fluorescence signal (Resorufin, Ex/Em: 535/587 nm) recorded at 25° C. using an L-alanine assay kit (Abcam, ab83394) at 25° C. according to manufacturer's instructions. For the AMC reporter assays, experiments were performed with cell lysates. 5 μL solution of substrate (2.5 mM Ala-AMC) was added the mixture of 10 μL HEK293T cell lysates (2.5 mg/ml) and 10 μL of indicated compounds in a 384-well, black, clear-bottom plate (Corning) to initiate the reaction. Substrate cleavage was measured as increasing fluorescence signal (Ex/Em: 380/460 nm) recorded at 25° C. for 20 mins. For XPNPEP1 enzymes (XPNPEP1 3.5 nM) were plated on a black 384-well clear bottom plate and treated with the indicated doses of compounds. H-Lys(abz)-Pro-Pro-pNA substrate was added to a final concentration of 100 μM, and fluorescence was monitored (Ex/Em: 320/410) for 60 mins.

MV4;11 WT cells = test: CellTiter-Glo cell viability, WT MV4;11 cells; type: cell-based
Protocol: CellTiter-Glo cell viability and CytoTox-Fluor cell death assays. Cells were plated (2,000 cells per well) in white, 384-well clear-bottom plates (Corning) using an EL406 Microplate Washer/Dispenser (BioTek) in 25 μL final volume of medium. To the cell plates were added compounds at different concentrations using a pintool (CyBio) and the plates were allowed to incubate in the incubator. After incubation for indicated times, CytoTox-Fluor reagent (Promega, G9262) was added according to the manufacturer's protocol. The assay plates were then incubated for another 30 min before fluorescence was recorded using a Cytation 5 Cell Imaging Multi-Mode Reader (BioTek). Next, CellTiter-Glo reagent (Promega, G7573) was subsequently added to the assay plates following the manufacturer's protocol. Assay plates were shaken on an orbital shaker for 2 min and incubated at 25° C. for 10 min. Luminescence was then read using a Cytation 5 Cell Imaging Multi-Mode Reader (BioTek).

XPNPEP1, sequence (Q9NQW7 whole entry): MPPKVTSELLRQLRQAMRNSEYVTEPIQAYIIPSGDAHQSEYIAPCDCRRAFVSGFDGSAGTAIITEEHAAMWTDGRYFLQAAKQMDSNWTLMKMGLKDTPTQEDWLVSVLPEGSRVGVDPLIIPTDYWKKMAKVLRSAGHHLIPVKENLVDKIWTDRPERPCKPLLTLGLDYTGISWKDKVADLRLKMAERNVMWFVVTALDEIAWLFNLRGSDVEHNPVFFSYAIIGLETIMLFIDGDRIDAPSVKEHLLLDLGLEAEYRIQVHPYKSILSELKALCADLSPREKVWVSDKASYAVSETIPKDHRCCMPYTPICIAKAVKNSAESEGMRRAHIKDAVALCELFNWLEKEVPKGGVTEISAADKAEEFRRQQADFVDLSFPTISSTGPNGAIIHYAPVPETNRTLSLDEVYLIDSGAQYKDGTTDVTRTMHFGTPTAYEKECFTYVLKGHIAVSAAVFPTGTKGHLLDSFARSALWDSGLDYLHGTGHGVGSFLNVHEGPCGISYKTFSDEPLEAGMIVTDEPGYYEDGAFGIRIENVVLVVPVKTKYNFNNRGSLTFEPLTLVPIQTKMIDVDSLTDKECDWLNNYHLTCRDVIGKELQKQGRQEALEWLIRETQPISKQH
recombinant human PEPD, sequence (P12955 whole entry): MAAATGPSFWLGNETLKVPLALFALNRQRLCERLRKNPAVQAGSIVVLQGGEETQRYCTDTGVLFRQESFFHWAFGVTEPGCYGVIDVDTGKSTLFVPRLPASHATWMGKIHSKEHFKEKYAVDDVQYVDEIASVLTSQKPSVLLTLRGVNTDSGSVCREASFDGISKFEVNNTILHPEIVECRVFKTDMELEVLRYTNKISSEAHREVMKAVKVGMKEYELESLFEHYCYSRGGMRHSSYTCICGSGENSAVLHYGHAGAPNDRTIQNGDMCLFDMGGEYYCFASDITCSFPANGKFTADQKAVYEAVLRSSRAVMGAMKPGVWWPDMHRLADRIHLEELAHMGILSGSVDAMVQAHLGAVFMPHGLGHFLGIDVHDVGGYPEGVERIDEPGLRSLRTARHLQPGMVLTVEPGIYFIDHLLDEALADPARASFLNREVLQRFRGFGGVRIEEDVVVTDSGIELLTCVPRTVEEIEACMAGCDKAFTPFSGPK

Row | IC50 (recombinant human PEPD) [µM] | IC50 (XPNPEP1) [µM] | Compound | overall activity (PEPD/XPNPEP1 inhibition and cytotoxicity, Table 6 and FIG. 2), in words (MV4;11 WT cells) | cytotoxicity to MV4;11 cells (in words) (MV4;11 WT cells; 24 h, CTG)
1 | 0.72 | 7 | CC(C)C[C@H](NC(=O)[C@@H]1CCCN1C(=O)[C@@H](O)[C@H](N)CC(C)C)C(=O)NCCF [CQ114, (S)-1-((2S,3R)-3-amino-2-hydroxy-5-methylhexanoyl)-N—((S)-1-((2-fluoroethyl)amino)-4-methyl-1-oxopentan-2-yl)pyrrolidine-2-carboxamide] |  | 
2 | 0.29 | 140 | CC(C)CCNC(=O)[C@@H]1CCCN1C(=O)[C@@H](O)[C@H](N)CC(C)C [CQ95, (S)-1-((2S,3R)-3-amino-2-hydroxy-5-methylhexanoyl)-N-isopentylpyrrolidine-2-carboxamide] | retained similar PEPD/XPNPEP1 inhibition and cytotoxicity as CQ31 | 
3 | 12 | 33 | COC(=O)[C@@H]1CCCN1C(=O)[C@@H](O)[C@H](N)C12CC3CC(CC(C3)C1)C2 [CQ47, Methyl ((2S,3R)-3-(adamantan-1-yl)-3-amino-2-hydroxypropanoyl)-L-prolinate] |  | almost completely inactive
4 | 2.2 | 154 | COC(=O)[C@@H]1C[C@H](C)CN1C(=O)[C@@H](O)[C@H](N)CC(C)C [CQ38, Methyl (2S,4S)-1-((2S,3R)-3-amino-2-hydroxy-5-methylhexanoyl)-4-methylpyrrolidine-2-carboxylate] |  | 
5 | 2 | 65 | COC(=O)[C@@H]1CCCN1C(=O)[C@@H](O)[C@H](N)c1cccs1 [CQ70, Methyl ((2S,3S)-3-amino-2-hydroxy-3-(thiophen-2-yl)propanoyl)-L-prolinate] |  | 
6 | 3.7 | 14 | CC(C)C[C@H](NC(=O)[C@@H]1CCCN1C(=O)[C@@H](O)[C@H](N)CC(C)C)C(=O)NC(C)(C)C [CQ115, (S)-1-((2S,3R)-3-amino-2-hydroxy-5-methylhexanoyl)-N—((S)-1-(tert-butylamino)-4-methyl-1-oxopentan-2-yl)pyrrolidine-2-carboxamide] |  | 
7 | 2.8 | 203 | COC(=O)[C@@H]1CCCN1C(=O)[C@@H](O)[C@H](N)c1ccccc1 [CQ64, Methyl ((2S,3R)-3-amino-2-hydroxy-3-phenylpropanoyl)-L-prolinate] |  | 
8 | 0.84 | 74 | COC(=O)[C@@H]1C[C@H](F)CN1C(=O)[C@@H](O)[C@H](N)CC(C)C [CQ35, Methyl (2S,4S)-1-((2S,3R)-3-amino-2-hydroxy-5-methylhexanoyl)-4-fluoropyrrolidine-2-carboxylate] |  | 
9 | 1.5 | 57 | COC(=O)[C@@H]1CCCN1C(=O)[C@@H](O)[C@H](N)CC(C)(C)C [CQ45, Methyl ((2S,3R)-3-amino-2-hydroxy-5,5-dimethylhexanoyl)-L-prolinate] |  | 
10 | 1.8 | 47 | COC(=O)[C@@H]1CCCN1C(=O)[C@@H](O)[C@H](N)c1ccc2ccoc2c1 [CQ69, Methyl ((2S,3R)-3-amino-3-(benzofuran-6-yl)-2-hydroxypropanoyl)-L-prolinate] |  | 
11 | 4 | 11 | CC(C)C[C@H](NC(=O)[C@@H]1CCCN1C(=O)[C@@H](O)[C@H](N)CC(C)C)C(=O)N(C)C [CQ109, (S)-1-((2S,3R)-3-amino-2-hydroxy-5-methylhexanoyl)-N—((S)-1-(dimethylamino)-4-methyl-1-oxopentan-2-yl)pyrrolidine-2-carboxamide] |  | 
12 | 1.5 | 14 | CC(C)CCNC(=O)[C@H](CC(C)C)NC(=O)[C@@H]1CCCN1C(=O)[C@@H](O)[C@H](N)CC(C)C [CQ110, (S)-1-((2S,3R)-3-amino-2-hydroxy-5-methylhexanoyl)-N—((S)-1-(isopentylamino)-4-methyl-1-oxopentan-2-yl)pyrrolidine-2-carboxamide] |  | 
13 | 7.6 | 2.2 | CC(C)C[C@H](NC(=O)[C@@H]1CCCN1C(=O)[C@@H](O)[C@H](N)CC(C)C)C(=O)NCCc1ccc2ccccc2c1 [CQ117, (S)-1-((2S,3R)-3-amino-2-hydroxy-5-methylhexanoyl)-N—((S)-4-methyl-1-((2-(naphthalen-2-yl)ethyl)amino)-1-oxopentan-2-yl)pyrrolidine-2-carboxamide] |  | 
14 | 1.3 | 115 | COC(=O)[C@@H]1CCCN1C(=O)[C@@H](O)[C@H](N)CCC(F)(F)F [CQ43, Methyl ((2S,3R)-3-amino-6,6,6-trifluoro-2-hydroxyhexanoyl)-L-prolinate] |  | 
15 | 7.5 | 10 | CC(C)C[C@H](NC(=O)[C@@H]1CCCN1C(=O)[C@@H](O)[C@H](N)CC(C)C)C(N)=O [CQ96, (S)-1-((2S,3R)-3-amino-2-hydroxy-5-methylhexanoyl)-N—((S)-1-amino-4-methyl-1-oxopentan-2-yl)pyrrolidine-2-carboxamide] |  | 
16 | 14 | 84 | CONC(=O)[C@H](CC(C)C)NC(=O)[C@@H]1CCCN1C(=O)[C@@H](O)[C@H](N)CC(C)C [CQ111, (S)-1-((2S,3R)-3-amino-2-hydroxy-5-methylhexanoyl)-N—((S)-1-(methoxyamino)-4-methyl-1-oxopentan-2-yl)pyrrolidine-2-carboxamide] |  | 
17 | 0.53 | 92 | CCCC[C@@H](N)[C@H](O)C(=O)N1CCC[C@H]1C(=O)OC [CQ63] |  | 
18 | 14 | 1.7 | CC(C)C[C@H](NC(=O)[C@@H]1CCCN1C(=O)[C@@H](O)[C@H](N)CC(C)C)C(=O)NCCc1ccc(-c2ccccc2)cc1 [CQ119, (S)—N—((S)-1-((2-([1,1′-biphenyl]-4-yl)ethyl)amino)-4-methyl-1-oxopentan-2-yl)-1-((2S,3R)-3-amino-2-hydroxy-5-methylhexanoyl)pyrrolidine-2-carboxamide] |  | 
19 | 0.56 | 2.9 | CC(C)C[C@H](NC(=O)[C@@H]1CCCN1C(=O)[C@@H](O)[C@H](N)CC(C)C)C(=O)NS(=O)(=O)N(C)C [CQ113, (S)-1-((2S,3R)-3-amino-2-hydroxy-5-methylhexanoyl)-N—((S)-1-((N,N-dimethylsulfamoyl)-amino)-4-methyl-1-oxopentan-2-yl)pyrrolidine-2-carboxamide] |  | 
20 | 1.8 | 190 | COC(=O)[C@@H]1CCCN1C(=O)[C@@H](O)[C@H](N)C(C)C [CQ59, Methyl ((2S,3R)-3-amino-2-hydroxy-4-methylpentanoyl)-L-prolinate] |  | 
21 | 7.6 | 241 | COC(=O)[C@@H]1CCCN1C(=O)[C@@H](O)[C@H](N)Cc1ccccc1 [CQ42, Methyl ((2S,3R)-3-amino-2-hydroxy-4-phenylbutanoyl)-L-prolinate] |  | 
22 | 1 | 324 | COC(=O)[C@@H]1CC2(CC2)CN1C(=O)[C@@H](O)[C@H](N)CC(C)C [CQ36, Methyl (S)-5-((2S,3R)-3-amino-2-hydroxy-5-methylhexanoyl)-5-azaspiro[2.4]heptane-6-carboxylate] |  | 

Row | Compound | IC50 (recombinant human PEPD) [µM] | IC50 (XPNPEP1) [µM] | overall activity (PEPD/XPNPEP1 inhibition and cytotoxicity, Table 6 and FIG. 2), in words (MV4;11 WT cells) | cytotoxicity to MV4;11 cells (in words) (MV4;11 WT cells; 24 h, CTG)
23 | COC(=O)[C@@H]1CCCN1C(=O)[C@@H](O)[C@H](N)c1ccco1 [CQ68, Methyl ((2S,3S)-3-amino-3-(furan-2-yl)-2-hydroxypropanoyl)-L-prolinate] | 1.7 | 69 |  | 
24 | CC(C)C[C@H](NC(=O)[C@@H]1CCCN1C(=O)[C@@H](O)[C@H](N)CC(C)C)C(=O)N1CCC1 [CQ112, (S)-1-((2S,3R)-3-amino-2-hydroxy-5-methylhexanoyl)-N—((S)-1-(azetidin-1-yl)-4-methyl-1-oxopentan-2-yl)pyrrolidine-2-carboxamide] | 66 | 95 |  | 
